Measurements from ChEMBL document CHEMBL1201862, “PubChem BioAssay data set” (2004).
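Protocol summary: plate cells (96-well), add compound at 5 concentrations, incubate 48 h, interpolate endpoints linearly. The concentration for 50% growth inhibition is given as GI50.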 Active and inactive are the calls of the source. No stated cut-off is given here; in the data, active = GI50 up to about 1.1 µM and inactive = higher.

What was measured:
Test in all cases: DTP human tumour cell line panel, 48 h
786-0 = test system: 786-0
A498 = test system: A498
A549 = test system: A549
ACHN = test system: ACHN
BT-549 = test system: BT-549
CAKI-1 = test system: CAKI-1
COLO 205 = test system: COLO 205
DU-145 = test system: DU-145
EKVX = test system: EKVX
HCC 2998 = test system: HCC 2998
HCT-116 = test system: HCT-116
HCT-15 = test system: HCT-15
HL-60 = test system: HL-60
HOP-62 = test system: HOP-62
HOP-92 = test system: HOP-92
HT-29 = test system: HT-29
Hs-578T = test system: Hs-578T
IGROV-1 = test system: IGROV-1
K562 = test system: K562
KM12 = test system: KM12
LOX IMVI = test system: LOX IMVI
M14 = test system: M14
MCF7 = test system: MCF7
MDA-MB-231 = test system: MDA-MB-231
MDA-MB-435 = test system: MDA-MB-435
MDA-N = test system: MDA-N
MOLT-4 = test system: MOLT-4
Malme-3M = test system: Malme-3M
NCI-H226 = test system: NCI-H226
NCI-H23 = test system: NCI-H23
NCI-H460 = test system: NCI-H460
NCI-H522 = test system: NCI-H522
NCI/ADR-RES = test system: NCI/ADR-RES
OVCAR-3 = test system: OVCAR-3
OVCAR-4 = test system: OVCAR-4
OVCAR-5 = test system: OVCAR-5
OVCAR-8 = test system: OVCAR-8
PC-3 = test system: PC-3
RPMI-8226 = test system: RPMI-8226
RXF 393 = test system: RXF 393
SF-268 = test system: SF-268
SF-295 = test system: SF-295
SF-539 = test system: SF-539
SK-MEL-28 = test system: SK-MEL-28
SK-MEL-2 = test system: SK-MEL-2
SK-MEL-5 = test system: SK-MEL-5
SK-OV-3 = test system: SK-OV-3
SN12C = test system: SN12C
SNB-19 = test system: SNB-19
SNB-75 = test system: SNB-75
SR = test system: SR
SW-620 = test system: SW-620
T47D = test system: T47D
TK-10 = test system: TK-10
U-251 = test system: U-251
UACC-257 = test system: UACC-257
UACC-62 = test system: UACC-62
UO-31 = test system: UO-31

Q: Which GI50 (786-0) does the source give for `CCCc1nnc2sc(COc3ccc(OCc4nn5c(CCC)nnc5s4)c(Cl)c3)nn12` here?
A: 28.5 µM (inactive)

Q: And the GI50 (A498)?
A: 23.6 µM (inactive)

Q: What about the GI50 (A549) of the same compound?
A: 27.5 µM (inactive)

Q: What about the GI50 (ACHN) of the same compound?
A: 20.9 µM (inactive)

Q: And the GI50 (BT-549)?
A: 23.9 µM (inactive)

Q: What about the GI50 (CAKI-1) of the same compound?
A: 19.1 µM (inactive)

Q: And the GI50 (COLO 205)?
A: 23.2 µM (inactive)

Q: And the GI50 (DU-145)?
A: 24.8 µM (inactive)

Q: And the GI50 (EKVX)?
A: 14.3 µM (inactive)

Q: What about the GI50 (HCC 2998) of the same compound?
A: 23.8 µM (inactive)

Q: What about the GI50 (HCT-116) of the same compound?
A: 27 µM (inactive)

Q: And the GI50 (HCT-15)?
A: 24.9 µM

Q: What about the GI50 (HL-60) of the same compound?
A: 14.8 µM (inactive)

Q: And the GI50 (HOP-62)?
A: 47.8 µM (inactive)

Q: What about the GI50 (HOP-92) of the same compound?
A: 20.4 µM (inactive)

Q: What about the GI50 (HT-29) of the same compound?
A: 29.4 µM (inactive)

Q: What about the GI50 (Hs-578T) of the same compound?
A: 47 µM (inactive)

Q: What about the GI50 (IGROV-1) of the same compound?
A: 24.9 µM (inactive)

Q: What about the GI50 (K562) of the same compound?
A: 32.1 µM (inactive)

Q: What about the GI50 (KM12) of the same compound?
A: 31 µM (inactive)

Q: What about the GI50 (LOX IMVI) of the same compound?
A: 33.7 µM (inactive)

Q: What about the GI50 (M14) of the same compound?
A: 21.9 µM (inactive)

Q: And the GI50 (MCF7)?
A: 20.9 µM (inactive)

Q: And the GI50 (MDA-MB-231)?
A: 36.1 µM (inactive)

Q: What about the GI50 (MDA-MB-435) of the same compound?
A: 20.5 µM (inactive)

Q: And the GI50 (MDA-N)?
A: 16.9 µM (inactive)

Q: And the GI50 (MOLT-4)?
A: 24.9 µM (inactive)

Q: What about the GI50 (Malme-3M) of the same compound?
A: 22.1 µM (inactive)

Q: What about the GI50 (NCI-H226) of the same compound?
A: > 100 µM (inactive)

Q: What about the GI50 (NCI-H23) of the same compound?
A: 20.2 µM (inactive)

Q: What about the GI50 (NCI-H460) of the same compound?
A: 23.3 µM (inactive)

Q: And the GI50 (NCI-H522)?
A: 21.1 µM (inactive)

Q: And the GI50 (NCI/ADR-RES)?
A: 30.5 µM (inactive)

Q: What about the GI50 (OVCAR-3) of the same compound?
A: 26 µM (inactive)

Q: What about the GI50 (OVCAR-4) of the same compound?
A: 14.7 µM (inactive)

Q: What about the GI50 (OVCAR-5) of the same compound?
A: 50.4 µM (inactive)

Q: What about the GI50 (OVCAR-8) of the same compound?
A: 31 µM (inactive)

Q: And the GI50 (PC-3)?
A: 44.2 µM (inactive)

Q: What about the GI50 (RPMI-8226) of the same compound?
A: 19.5 µM (inactive)

Q: What about the GI50 (RXF 393) of the same compound?
A: 27 µM (inactive)

Q: What about the GI50 (SF-268) of the same compound?
A: 23 µM (inactive)

Q: What about the GI50 (SF-295) of the same compound?
A: 20.8 µM (inactive)

Q: What about the GI50 (SF-539) of the same compound?
A: 12.1 µM (inactive)

Q: And the GI50 (SK-MEL-28)?
A: 26.1 µM (inactive)

Q: What about the GI50 (SK-MEL-2) of the same compound?
A: 42.1 µM (inactive)

Q: What about the GI50 (SK-MEL-5) of the same compound?
A: 7.35 µM (inactive)

Q: What about the GI50 (SK-OV-3) of the same compound?
A: 36.6 µM (inactive)

Q: And the GI50 (SN12C)?
A: 29.4 µM (inactive)

Q: And the GI50 (SNB-19)?
A: 33.8 µM (inactive)

Q: And the GI50 (SNB-75)?
A: 22.2 µM (inactive)

Q: What about the GI50 (SR) of the same compound?
A: 17.8 µM (inactive)

Q: And the GI50 (SW-620)?
A: 40.3 µM (inactive)

Q: And the GI50 (T47D)?
A: 2.78 µM (inactive)

Q: And the GI50 (TK-10)?
A: 31.3 µM (inactive)

Q: And the GI50 (U-251)?
A: 38.2 µM (inactive)

Q: What about the GI50 (UACC-257) of the same compound?
A: 20.3 µM (inactive)

Q: And the GI50 (UACC-62)?
A: 13.7 µM (inactive)

Q: And the GI50 (UO-31)?
A: 14.6 µM (inactive)
